Assay results as given in patent US20240374692A1, “A NOVEL ACYLATED INSULIN ANALOG” (SUNSHINE LAKE PHARMA CO., LTD., priority 2021, published 2024).
Where two headings read alike, the source gives them in different places. One block for each substance: values may come before it.

Assays:
[1] = system: STZ-induced type I diabetes mellitus (T1DM) C57BL/6 mice; assay: Hypoglycemic effect, repeated administration (three times) to STZ-induced T1DM C57BL/6 mice (Example 6); format: in vivo; set-up: key to random blood glucose: blood glucose in mmol/L; conditions: for random blood glucose: Mean ± SEM, n = 7
Method: SPF grade C57BL/6 mice were reared in a suitable rearing box in a barrier environment, with a rearing temperature of 20-26° C., a humidity of 40-70%, a time between day and night of 12 h/12 h, and the mice had free access to standard food and autoclaved sterilization water. After the 3-day quarantine period and the 2-day acclimation period, the mice were fasted for 12 h, and the mice were injected intraperitoneally with streptozotocin solution (STZ, 13 mg/mL, in citrate buffer) at 130 mg/kg. 3 Days and 7 days after administration of streptozotocin, random blood glucose and fasting blood glucose were detected, and the random blood glucose value above 25 mmol/L and fasting blood glucose value above 11.1 mmol/L were selected as T1DM model mice for follow-up experiments. On the day before administration, random blood glucose was monitored and mice were weighed. Mice were divided into 6 groups according to random blood glucose and body weight.
Subcutaneous administration (S.C.) was used to administer the corresponding vehicle or drug, once every 4-5 days, for a total of 3 administrations. During the experiment, the animals were allowed to eat and drink water freely. The random blood glucose before the first administration, and 0.25, 0.5, 1, 2, 4, 6, 8, 10, 24, 48, 72, and 96 h after administration were assessed, as well as the random blood glucose before the second and third administration, and 0.5, 1, 2, 6, 24, 48, 72, 96 and 120 h after administration.
(§1) All raw data were entered into Excel files and expressed as Mean±SEM. Statistical analysis of data was performed using Graphpad Prism 7.0 software, one-way or two-way ANOVA comparison method, and P<0.05 was used as the criterion for significant differences.

insulin receptor B = biological target: T1, insulin receptor B (Homo sapiens, UniProt P06213); assay: Insulin receptor B autophosphorylation in transfected cells (Cisbio Phospho-IR beta Tyr1150/1151 kit); format: cell-based; conditions: for Relative HI activity: relative to human insulin; for Relative 0% HSA activity: 1.5% HSA relative to 0% HSA
T1 construct: expressed in transfected cells
Method: The phosphorylation level of insulin receptor B was detected by Cisbio's Phospho-IR beta (Tyr1150/1151) kit method to evaluate the biological activity of insulin. The cells were seeded into a 96-well plate overnight, and after the serum in the medium was removed, 40 μl of serum-free medium was added to culture for about 4 h. Then a dilution series of insulin derivatives were prepared with blank solution (0.6% casein, 0.06 mg/mL EDTA, 1×DPBS) and incubated with cells in the 96-well plate for 5 min in a CO2 incubator (37° C., 5% CO2). The liquid in the 96-well plate was poured off, 100 µL of a mixture of lysis buffer (2% Triton X-100, 150 mM NaCl, 50 mM HEPES, pH=7) and inhibitor (Blocking Reagent in the kit) was added to lyse the cells, then the plate was shaken at 350 rpm for 30 min. Relative activity (in percent (%)) was assessed by measuring insulin receptor phosphorylation levels in the supernatant after cell lysis and fitting a curve to the data using nonlinear regression in Graphpad Prism 5 software. Related assays were also used, in which the blank solution also contained 1.5% HSA to simulate physiological conditions. Changes in the phosphorylation levels of the insulin-activated insulin receptors of the invention were detected as an indirect reflection of the albumin binding activity.

[2] = rat, in vivo, sc, 10 nmol/kg
normal C57BL/6 mice = assay: Hypoglycemic effect, single subcutaneous administration to normal C57BL/6 mice; format: in vivo; set-up: blood glucose: unit not given here; conditions: for blood glucose compared with the control group: 1 h after single S.C. administration; for blood glucose: Mean ± SEM, n = 6
Method: SPF grade C57BL/6 mice were reared in a suitable rearing box in a barrier environment, with a rearing temperature of 20-26° C., a humidity of 40-70%, a time between day and night of 12 h/12 h, and the mice had free access to standard food and autoclaved sterilization water. After a 3-day quarantine period and a 2-day acclimation period, random blood glucose was measured and mice were weighed. Mice were divided into 6 groups according to random blood glucose and body weight.
Single subcutaneous administration (S.C.) was used to administer the corresponding vehicle or drug. The control group was administered the vehicle PBS without fasting during the whole process, and the animals were allowed to eat and drink freely. Random blood glucose values of C57 mice were measured before administration and at 0.25, 0.5, 1, 2, 4, 6, 8, 10, 24, 48, 54, 72 and 96 hours after administration.
as §1

[3] = dog, in vivo, iv, 10 nmol/kg
Method: Two beagle dogs, one in each group, a double-cycle crossover design was used, with a washout period of 1 week, and a single dose of 10 nmol/kg of Icodec or Insulin-a10 was administered to the lateral small saphenous vein of the hind limb in each cycle, the blood was collected and plasma was centrifuged at 0.083, 0.25, 0.5, 1, 2, 6, 8, 24, 30, 48, 72 and 96 h after administration, the concentration of Icodec or Insulin-a10 in the plasma was detected.

[4] = 500 nmol/Kg S.C. three times, Day 0 (1st)
[5] = 500 nmol/Kg S.C. three times, Day 1
[6] = 500 nmol/Kg S.C. three times, Day 4 (2nd)
[7] = 500 nmol/Kg S.C. three times, Day 5
[8] = 500 nmol/Kg S.C. three times, Day 9 (3rd)
[9] = 500 nmol/Kg S.C. three times, Day 10
[10] = 500 nmol/Kg S.C. three times, Day 14
[11] = single S.C., Degludec 200 nmol/Kg, others 1400 nmol/Kg

T1 sequence (P06213 28-758 limits assumed): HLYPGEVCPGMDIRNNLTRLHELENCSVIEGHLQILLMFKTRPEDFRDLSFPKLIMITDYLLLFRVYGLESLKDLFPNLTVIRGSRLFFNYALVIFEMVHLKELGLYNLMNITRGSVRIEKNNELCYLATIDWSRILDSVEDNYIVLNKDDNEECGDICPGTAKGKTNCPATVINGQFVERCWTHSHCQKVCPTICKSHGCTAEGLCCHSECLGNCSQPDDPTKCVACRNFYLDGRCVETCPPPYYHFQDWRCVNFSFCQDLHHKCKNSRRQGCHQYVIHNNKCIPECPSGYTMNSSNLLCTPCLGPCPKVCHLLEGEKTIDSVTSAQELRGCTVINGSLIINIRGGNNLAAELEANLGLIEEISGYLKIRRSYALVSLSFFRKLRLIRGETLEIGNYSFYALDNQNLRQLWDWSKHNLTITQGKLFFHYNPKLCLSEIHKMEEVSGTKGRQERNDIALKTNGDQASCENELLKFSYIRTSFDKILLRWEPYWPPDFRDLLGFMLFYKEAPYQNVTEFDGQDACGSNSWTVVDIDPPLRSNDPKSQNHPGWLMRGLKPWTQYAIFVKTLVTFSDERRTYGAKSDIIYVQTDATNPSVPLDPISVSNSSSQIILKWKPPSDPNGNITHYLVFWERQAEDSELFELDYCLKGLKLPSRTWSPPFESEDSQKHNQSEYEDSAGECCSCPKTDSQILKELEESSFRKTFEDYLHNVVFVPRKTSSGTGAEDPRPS
T1 sequence (P06213 763-1382 partner limits assumed): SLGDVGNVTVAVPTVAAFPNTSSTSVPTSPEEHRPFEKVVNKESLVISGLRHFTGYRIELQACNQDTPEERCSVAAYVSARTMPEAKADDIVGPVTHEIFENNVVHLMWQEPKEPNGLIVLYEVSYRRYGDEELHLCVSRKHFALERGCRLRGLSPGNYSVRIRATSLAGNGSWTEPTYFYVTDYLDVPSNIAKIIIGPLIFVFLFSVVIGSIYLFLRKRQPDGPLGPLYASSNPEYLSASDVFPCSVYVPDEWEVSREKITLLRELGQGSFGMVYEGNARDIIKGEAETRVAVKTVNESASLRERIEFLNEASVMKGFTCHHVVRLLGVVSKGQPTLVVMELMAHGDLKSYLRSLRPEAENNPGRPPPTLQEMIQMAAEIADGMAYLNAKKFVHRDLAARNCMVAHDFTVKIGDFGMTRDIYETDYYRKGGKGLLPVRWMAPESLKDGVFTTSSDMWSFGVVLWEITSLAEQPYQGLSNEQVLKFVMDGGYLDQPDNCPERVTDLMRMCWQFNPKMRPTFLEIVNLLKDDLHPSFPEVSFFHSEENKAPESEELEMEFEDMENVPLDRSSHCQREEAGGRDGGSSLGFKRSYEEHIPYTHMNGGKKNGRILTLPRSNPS

EC50 (insulin receptor B; 0% HSA): 77.2 nM
Relative HI activity (insulin receptor B; 0% HSA): 1.60%
EC50 (insulin receptor B; 1.5% HSA): 1480 nM
Relative 0% HSA activity (insulin receptor B): 5.23%
Relative HI activity (insulin receptor B; 1.5% HSA): 0.17%
Substance: A14E, B16H, B25H, B29K (N^ε-eicosandioyl-gGlu-2xOEG), DesB30 human insulin analog [Icodec, reference compound]
random blood glucose ([1]; 250 nmol/Kg S.C. three times, Day 0 (1st)): 32.5 ± 2.2
random blood glucose ([1]; 250 nmol/Kg S.C. three times, Day 1): 25.7 ± 4.2
random blood glucose ([1]; 250 nmol/Kg S.C. three times, Day 4 (2nd)): 31.3 ± 2.6
random blood glucose ([1]; 250 nmol/Kg S.C. three times, Day 5): 25.1 ± 3.2
random blood glucose ([1]; 250 nmol/Kg S.C. three times, Day 9 (3rd)): 31.8 ± 2.2
random blood glucose ([1]; 250 nmol/Kg S.C. three times, Day 10): 17.2 ± 6.8
random blood glucose ([1]; 250 nmol/Kg S.C. three times, Day 14): 30.6 ± 4.6
random blood glucose [1, 4]: 32.5 ± 1.6
random blood glucose [1, 5]: 20.3 ± 6.3
random blood glucose [1, 6]: 30.6 ± 2.6
random blood glucose [1, 7]: 19.5 ± 5.8
random blood glucose [1, 8]: 27.0 ± 7.1
random blood glucose [1, 9]: 15.9 ± 6.0
random blood glucose [1, 10]: 33.0 ± 0.9
random blood glucose ([1]; 1000 nmol/Kg S.C. three times, Day 0 (1st)): 30.8 ± 2.9
random blood glucose ([1]; 1000 nmol/Kg S.C. three times, Day 1): 20.4 ± 4.6
random blood glucose ([1]; 1000 nmol/Kg S.C. three times, Day 4 (2nd)): 31.6 ± 2.1
random blood glucose ([1]; 1000 nmol/Kg S.C. three times, Day 5): 12.8 ± 5.4
random blood glucose ([1]; 1000 nmol/Kg S.C. three times, Day 9 (3rd)): 29.7 ± 3.7
random blood glucose ([1]; 1000 nmol/Kg S.C. three times, Day 10): 10.1 ± 6.4
random blood glucose ([1]; 1000 nmol/Kg S.C. three times, Day 14): 27.7 ± 4.6
AUClast [2]: 6560 ng·h/mL
MRTINF_obs [2]: 30.5 h
T1/2 [2]: 16.7 h
blood glucose compared with the control group (normal C57BL/6 mice): decreased significantly
effective blood glucose control time (normal C57BL/6 mice; [11]): 96 h
time after administration at which blood glucose reached the lowest level (normal C57BL/6 mice; [11]): 48 h
AUClast [3]: 35700 ± 120 ng·h/mL
T1/2 [3]: 35.7 ± 6.7 h

EC50 (insulin receptor B; 0% HSA): 85.5 nM
Relative HI activity (insulin receptor B; 0% HSA): 1.44%
EC50 (insulin receptor B; 1.5% HSA): 1310 nM
Relative 0% HSA activity (insulin receptor B): 6.52%
Relative HI activity (insulin receptor B; 1.5% HSA): 0.20%
Substance: A14E, B16H, B25H, B29K(N(ε)-COOH(CH2)18CO-L-Lys-CO(CH2)2CO—(OEG)2), desB30 human insulin analog [Insulin-a10]
effective glucose control time ([1]; 500 nmol/Kg S.C.): 120 h
random blood glucose [1, 4]: 32.0 ± 1.7
random blood glucose [1, 5]: 19.7 ± 6.6
random blood glucose [1, 6]: 27.6 ± 4.4
random blood glucose [1, 7]: 15.2 ± 8.9
random blood glucose [1, 8]: 26.6 ± 5.7
random blood glucose [1, 9]: 11.7 ± 9.4
random blood glucose [1, 10]: 26.1 ± 6.2
time after administration at which blood glucose returned to normal level ([1]; 500 nmol/Kg S.C., after the first administration): 96 h
time after administration at which blood glucose returned to normal level ([1]; 500 nmol/Kg S.C., after the second and third administrations): 120 h
time after each administration at which blood glucose reached the lowest level ([1]; Icodec 250, 500 and 1000 nmol/kg, Insulin-a3 and Insulin-a10 500 nmol/Kg): 24 h
glucose control effect compared with the Icodec-1000 nmol/kg group ([1]; test drug 500 nmol/Kg S.C.): equivalent
AUClast [2]: 9350 ng·h/mL
MRTINF_obs [2]: 29.2 h
T1/2 [2]: 17.2 h
blood glucose (normal C57BL/6 mice; 0 h (before administration), single S.C., Degludec 200 nmol/Kg, others 1400 nmol/Kg): 9.1 ± 1.5
blood glucose (normal C57BL/6 mice; 0.25 h after single S.C., Degludec 200 nmol/Kg, others 1400 nmol/Kg): 7.9 ± 1.5
blood glucose compared with the control group (normal C57BL/6 mice): decreased significantly
blood glucose (normal C57BL/6 mice; 1 h after single S.C., Degludec 200 nmol/Kg, others 1400 nmol/Kg): 4.4 ± 0.6
blood glucose (normal C57BL/6 mice; 2 h after single S.C., Degludec 200 nmol/Kg, others 1400 nmol/Kg): 4.4 ± 1.3
blood glucose (normal C57BL/6 mice; 4 h after single S.C., Degludec 200 nmol/Kg, others 1400 nmol/Kg): 3.7 ± 1.0
blood glucose (normal C57BL/6 mice; 6 h after single S.C., Degludec 200 nmol/Kg, others 1400 nmol/Kg): 3.5 ± 1.1
blood glucose (normal C57BL/6 mice; 8 h after single S.C., Degludec 200 nmol/Kg, others 1400 nmol/Kg): 3.1 ± 1.0
blood glucose (normal C57BL/6 mice; 10 h after single S.C., Degludec 200 nmol/Kg, others 1400 nmol/Kg): 2.8 ± 0.7
blood glucose (normal C57BL/6 mice; 24 h after single S.C., Degludec 200 nmol/Kg, others 1400 nmol/Kg): 2.1 ± 0.7
blood glucose (normal C57BL/6 mice; 48 h after single S.C., Degludec 200 nmol/Kg, others 1400 nmol/Kg): 1.7 ± 0.6
blood glucose (normal C57BL/6 mice; 72 h after single S.C., Degludec 200 nmol/Kg, others 1400 nmol/Kg): 1.8 ± 0.1
blood glucose (normal C57BL/6 mice; 96 h after single S.C., Degludec 200 nmol/Kg, others 1400 nmol/Kg): 4.0 ± 4.0
effect on blood glucose control compared with Icodec (normal C57BL/6 mice; single S.C. 1400 nmol/Kg): consistent with the trend of Icodec and can be maintained for a longer time
effective blood glucose control time (normal C57BL/6 mice; [11]): more than 96 h
time after administration at which blood glucose reached the lowest level (normal C57BL/6 mice; [11]): 72 h
time after administration at which blood glucose returned to normal (normal C57BL/6 mice; [11]): > 96 h
AUClast [3]: 28300 ± 3500 ng·h/mL
T1/2 [3]: 46 ± 10.8 h
